Assay results: paper PMC10584170, “Machine learning-based phenotypic imaging to characterise the targetable biology of Plasmodium falciparum male gametocytes for the development of transmission-blocking antimalarials” (PLOS Pathogens, 2023)
Where two headings read alike, the source gives them in different places.

Columns and labels:
HepG2 cells = assay: HepG2 cytotoxicity counter-screen; settings: cytotoxic activity against HepG2 cells
[1] = system: P. falciparum female gametocytes; assay: P. falciparum Dual Gamete Formation Assay (PfDGFA), female readout (Pfs25-positive female gametes); format: cell-based, Plasmodium falciparum NF54; settings: for Selectivity ratio F: HepG2 Tox50 versus female IC50; for IC50: PfDGFA, 24 h incubation with gametocytes before induction, female gamete readout, read-out: Female IC50; for HitlevelF: number of replicates with >50% inhibition in the female readout
In short: (§1)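 Mature NF54 gametocytes (day 14) were incubated with compound for 24 h at 37°C under 1% O2/3% CO2, then triggered with xanthurenic acid ookinete medium plus Cy3-anti-Pfs25. Exflagellation was imaged by brightfield; after a further 24 h at 28°C, Pfs25-positive female gametes were imaged by fluorescence and counted by automated image analysis.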

[2] = system: P. falciparum male gametocytes; assay: P. falciparum Dual Gamete Formation Assay (PfDGFA), male readout (exflagellation); format: cell-based, Plasmodium falciparum NF54; settings: for Selectivity Ratio M: HepG2 Tox50 versus male IC50; for IC50: PfDGFA, 24 h incubation with gametocytes before induction, exflagellation readout, read-out: Male IC50; for HitlevelM: number of replicates with >50% inhibition in the male readout
In short: as §1

[3] = PfDGFA at 2µM, 24h preincubation with gametocytes, average of replicates
[4] = PfDGFA at 2µM, 24h preincubation with gametocytes, replicate R1
[5] = PfDGFA at 2µM, 24h preincubation with gametocytes, replicate R3
[6] = PfDGFA at 2µM, 24h preincubation with gametocytes, replicate R4
[7] = 2µM, 24h preincubation with gametocytes prior to induction of gametogenesis, average of replicates
[8] = 2µM, 24h preincubation with gametocytes prior to induction of gametogenesis, replicate R1
[9] = 2µM, 24h preincubation with gametocytes prior to induction of gametogenesis, replicate R3
[10] = 2µM, 24h preincubation with gametocytes prior to induction of gametogenesis, replicate R4
[11] = 2µM, 24h preincubation with gametocytes, average of replicates
[12] = 2µM, 24h preincubation with gametocytes, replicate R1
[13] = 2µM, 24h preincubation with gametocytes, replicate R3
[14] = 2µM, 24h preincubation with gametocytes, replicate R4

Row | Structure (SMILES) | Tox50 (HepG2 cells) | Selectivity ratio F [1] | Average inhibition female (%) [1, 3] | % inhibition female (individual replicates) R1 [1, 4] | % inhibition female (individual replicates) R3 [1, 5] | % inhibition female (individual replicates) R4 [1, 6] | IC50 [1] | HitlevelF ([1]; 2µM) | Selectivity Ratio M [2] | Average inhibition male (%) [2, 3] | % inhibition male (individual replicates) R1 [2, 4] | % inhibition male (individual replicates) R3 [2, 5] | % inhibition male (individual replicates) R4 [2, 6] | IC50 [2] | HitlevelM ([2]; 2µM) | also measured
1 | COc1ccccc1-c1nc2c(ccc3nc(N)nc(N)c32)[nH]1 [TCMDC-137976] | 2.07 µM | 0.68 | 41.0% | 50.1% | 49.2% | 39.4% | 3.03 µM | 1 | 1.2 | 63.5% | 72.4% | 76.7% | 81.8% | 1.72 µM | 3 | 
2 | CCOCn1c(-c2ccccc2)cc2c3c(N)nc(N)nc3ccc21 [TCMDC-137979] | 1.17 µM | 1.17 |  |  |  |  | 1 µM |  | 0.71 |  |  |  |  | 1.66 µM |  | Average inhibition female (%) [1, 7]: 82.0%; % inhibition female (individual replicates) R1 [1, 8]: 76.5%; % inhibition female (individual replicates) R3 [1, 9]: 82.3%; % inhibition female (individual replicates) R4 [1, 10]: 83.9%; HitlevelF ([1]; 2µM, 24h preincubation): 4; Average inhibition male (%) [2, 7]: 42.1%; % inhibition male (individual replicates) R1 [2, 8]: 55.5%; % inhibition male (individual replicates) R3 [2, 9]: 46.9%; % inhibition male (individual replicates) R4 [2, 10]: 49.0%; HitlevelM ([2]; 2µM, 24h preincubation): 1
3 | CCOc1cc(OCC)c2ccccc2c1CNCCCCCCNCc1c(OCC)cc(OCC)c2ccccc12.CS(=O)(=O)O [TCMDC-137982] | 2.84 µM | 1.67 |  |  |  |  | 1.7 µM |  | 2.69 |  |  |  |  | 1.06 µM |  | Average inhibition female (%) [1, 11]: 82.9%; % inhibition female (individual replicates) R1 [1, 12]: 76.1%; % inhibition female (individual replicates) R3 [1, 13]: 92.8%; % inhibition female (individual replicates) R4 [1, 14]: 83.8%; Average inhibition male (%) [2, 11]: 97.2%; % inhibition male (individual replicates) R1 [2, 12]: 95.9%; % inhibition male (individual replicates) R3 [2, 13]: 96.2%; % inhibition male (individual replicates) R4 [2, 14]: 100.2%
4 | CC(C)(C)c1ccc(-c2nc3c(ccc4nc(N)nc(N)c43)[nH]2)cc1.Cl [TCMDC-137984] | 3.25 µM | 3.35 |  |  |  |  |  |  | 17.94 |  |  |  |  |  |  | inhibition at 2 µM ([1]; Plasmodium falciparum, 2µM, 24h preincubation with gametocytes, average of replicates, read-out: Average inhibition female (%)): 42.3%; inhibition at 2 µM ([1]; Plasmodium falciparum, 2µM, 24h preincubation with gametocytes, replicate R1, read-out: % inhibition female (individual replicates) R1): 35.1%; inhibition at 2 µM ([1]; Plasmodium falciparum, 2µM, 24h preincubation with gametocytes, replicate R2, read-out: % inhibition female (individual replicates) R2): 50%; inhibition at 2 µM ([1]; Plasmodium falciparum, 2µM, 24h preincubation with gametocytes, replicate R3, read-out: % inhibition female (individual replicates) R3): 42.4%; inhibition at 2 µM ([1]; Plasmodium falciparum, 2µM, 24h preincubation with gametocytes, replicate R4, read-out: % inhibition female (individual replicates) R4): 41.7%; IC50 ([1]; Plasmodium falciparum): 0.97 µM; inhibition at 2 µM ([2]; Plasmodium falciparum, 2µM, 24h preincubation with gametocytes, average of replicates, read-out: Average inhibition male (%)): 99.4%; inhibition at 2 µM ([2]; Plasmodium falciparum, 2µM, 24h preincubation with gametocytes, replicate R1, read-out: % inhibition male (individual replicates) R1): 99.9%; inhibition at 2 µM ([2]; Plasmodium falciparum, 2µM, 24h preincubation with gametocytes, replicate R2, read-out: % inhibition male (individual replicates) R2): 99.6%; inhibition at 2 µM ([2]; Plasmodium falciparum, 2µM, 24h preincubation with gametocytes, replicate R3, read-out: % inhibition male (individual replicates) R3): 98%; inhibition at 2 µM ([2]; Plasmodium falciparum, 2µM, 24h preincubation with gametocytes, replicate R4, read-out: % inhibition male (individual replicates) R4): 100%; IC50 ([2]; Plasmodium falciparum): 0.18 µM
5 | Cn1c(-c2ccccc2)cc2c3c(N)nc(N)nc3ccc21 [TCMDC-137985] | 4.6 µM | 1.39 | 1.3% | 15.4% | -11.7% | 3.6% | 3.3 µM | 0 | 2.45 | 67.4% | 74.3% | 56.6% | 64.0% | 1.88 µM | 4 | 
